Drawing on BindingDB's records for PubMed 38359536 (China Pharmaceutical University), this text covers IC50 for one molecule.

This experiment addresses Protein arginine N-methyltransferase 5 (Homo sapiens, UniProt O14744). The experiment can be described thus: Inhibition of human PRMT5 expressed in HEK293 cells coexpressing MEP50 incubated for 60 mins by chemiluminescent assay.

Protein arginine N-methyltransferase 5, sequence (O14744 whole entry): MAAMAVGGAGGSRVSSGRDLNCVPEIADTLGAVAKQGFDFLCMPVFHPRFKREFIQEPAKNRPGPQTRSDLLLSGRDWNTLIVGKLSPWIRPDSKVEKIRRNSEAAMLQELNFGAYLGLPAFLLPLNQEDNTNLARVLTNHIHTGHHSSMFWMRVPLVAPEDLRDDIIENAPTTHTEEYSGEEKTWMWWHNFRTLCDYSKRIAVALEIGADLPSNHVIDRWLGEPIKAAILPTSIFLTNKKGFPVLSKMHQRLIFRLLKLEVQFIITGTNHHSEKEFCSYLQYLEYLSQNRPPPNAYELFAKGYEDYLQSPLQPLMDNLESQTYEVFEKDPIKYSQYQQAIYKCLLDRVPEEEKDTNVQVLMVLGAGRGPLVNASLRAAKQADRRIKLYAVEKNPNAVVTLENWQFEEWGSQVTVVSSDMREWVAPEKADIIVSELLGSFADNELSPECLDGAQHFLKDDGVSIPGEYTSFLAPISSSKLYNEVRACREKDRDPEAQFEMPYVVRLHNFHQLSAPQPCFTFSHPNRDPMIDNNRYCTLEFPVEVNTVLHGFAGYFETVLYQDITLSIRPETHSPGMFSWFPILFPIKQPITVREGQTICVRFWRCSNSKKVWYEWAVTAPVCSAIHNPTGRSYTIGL

As usually defined, the IC50 is the concentration that inhibits the measured activity by half. High values mean a need for much substance, low ones inhibition by little substance. `CC(=O)N1CCC(Nc2cc(C(=O)NC[C@H](O)CN3CCc4c([nH]c5ccccc45)C3)ncn2)CC1` [(S)-6-((1-acetylpiperidin-4-yl)amino)-N-(2-hydroxy-3-(1,3,4,9-tetrahydro-2H-pyrido [3,4-b]indol-2-yl)propyl)pyrimidine-4-carboxamide] showed an IC50 of 10 nM.
